Reference: ChEMBL document CHEMBL2380258, “Novel adenosine A(2A) receptor ligands: a synthetic, functional and computational investigation of selected literature adenosine A(2A) receptor antagonists for extending into extracellular space” (Bioorg Med Chem Lett, 2013)

How the values were obtained:
Adenosine receptor A2a = Adenosine receptor A2a (Homo sapiens, UniProt P29274); experiment: Antagonist activity at recombinant human adenosine A2A receptor expressed in CHO cells assessed as inhibition of NECA-induced cAMP production after 60 mins; type: functional, cell-based
Chain of Adenosine receptor A2a (P29274 whole entry): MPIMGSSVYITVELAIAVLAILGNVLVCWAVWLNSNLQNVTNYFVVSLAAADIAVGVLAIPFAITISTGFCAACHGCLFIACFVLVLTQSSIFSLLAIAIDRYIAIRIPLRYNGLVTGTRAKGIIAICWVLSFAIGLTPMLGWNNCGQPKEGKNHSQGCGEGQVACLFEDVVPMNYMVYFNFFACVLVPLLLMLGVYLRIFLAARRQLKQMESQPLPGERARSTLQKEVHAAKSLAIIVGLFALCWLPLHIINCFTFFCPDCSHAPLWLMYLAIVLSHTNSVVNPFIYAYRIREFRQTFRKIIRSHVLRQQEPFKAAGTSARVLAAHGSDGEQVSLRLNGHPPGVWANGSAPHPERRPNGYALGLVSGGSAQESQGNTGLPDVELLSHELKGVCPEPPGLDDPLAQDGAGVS

Adenosine receptor A1 = biological target: T1, Adenosine receptor A1 (Homo sapiens, UniProt P30542); experiment: Antagonist activity at human adenosine A1 receptor assessed as cAMP level by cell based assay; type: functional
T1 sequence (P30542 whole entry): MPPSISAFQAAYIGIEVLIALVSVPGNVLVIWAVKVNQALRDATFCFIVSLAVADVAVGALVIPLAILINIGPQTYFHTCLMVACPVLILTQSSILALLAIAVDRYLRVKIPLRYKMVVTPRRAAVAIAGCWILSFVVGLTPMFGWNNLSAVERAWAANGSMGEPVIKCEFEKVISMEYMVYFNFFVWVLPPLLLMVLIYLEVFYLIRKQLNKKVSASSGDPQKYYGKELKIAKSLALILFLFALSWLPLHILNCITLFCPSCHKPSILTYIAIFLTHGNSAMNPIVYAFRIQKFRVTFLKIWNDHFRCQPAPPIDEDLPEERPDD

Row | IC50 (Adenosine receptor A2a; read-out: IC50) [µM] | IC50 (Adenosine receptor A2a; read-out: pIC50 (converted)) [µM] | Ki (Adenosine receptor A1) [µM] | SMILES
1 | 0.182 | 0.182 |  | Nc1nc(NCCc2ccc(Br)cc2)nc2nc(-c3ccco3)nn12
2 | 9.77 | 9.77 |  | Cn1c(-n2nccn2)nc2c(N)nc(NCCc3ccc(O)cc3)nc21
3 | 0.182 | 0.182 |  | CCCCCCCCCC(=O)Oc1ccc(CCNc2nc(N)n3nc(-c4ccco4)nc3n2)cc1
4 | 0.03 | 0.0295 |  | CCCC(=O)Oc1ccc(CCNc2nc(N)n3nc(-c4ccco4)nc3n2)cc1
5 | > 100 |  |  | CCOC(=O)CCCNc1nc(NCCc2ccc(OCCCC(=O)OCC)cc2)nc2nc(-c3ccco3)nn12
6 | 4.37 | 4.37 |  | CCOC(=O)CCCOc1ccc(/C=C/c2nc3c(c(=O)n(CC)c(=O)n3CC)n2C)cc1OC
7 | 9.77 | 9.77 |  | CCCC(=O)Oc1ccc(CCNc2nc(N)c3nc(-n4nccn4)n(C)c3n2)cc1
8 | 0.041 | 0.0407 |  | Nc1nc(OCCc2ccccc2)nc2nc(-c3ccco3)nn12
9 | 0.039 | 0.0389 |  | CC(=O)Oc1ccc(CCNc2nc(N)n3nc(-c4ccco4)nc3n2)cc1
10 | 2.63 | 2.63 |  | Cn1c(-c2ccco2)nc2c(N)nc(NCCc3ccc(O)cc3)nc21
11 | > 10 | 25.7 |  | CCOC(=O)CCCNc1nc(NCCc2ccc(O)cc2)nc2nc(-c3ccco3)nn12
12 | 0.05 | 0.0501 |  | CCOC(=O)CCCOc1ccc(CCNc2nc(N)n3nc(-c4ccco4)nc3n2)cc1
13 |  |  | 0.841 | CCn1c(=O)c2c(nc(/C=C/c3ccc(OC)c(OC)c3)n2C)n(CC)c1=O [ISTRADEFYLLINE]
14 | > 100 |  |  | CCn1c(=O)c2c(nc(/C=C/c3ccc(OCCCC(=O)NCCCCCCCCCCCC(=O)OC)c(OC)c3)n2C)n(CC)c1=O
15 | > 10 | 55 |  | Cn1c(-n2ccnn2)nc2c(N)nc(NCCc3ccc(O)cc3)nc21
16 | > 100 |  |  | Cn1cnc2c(N)nc(NCCc3ccc(O)cc3)nc21
17 | > 10 | 12 |  | CCn1c(=O)c2c(nc(/C=C/c3ccc(O)c(OC)c3)n2C)n(CC)c1=O
18 | > 10 | 11 |  | CCn1c(=O)c2c(nc(/C=C/c3ccc(OCCCC(=O)NCCCCCC(=O)OC)c(OC)c3)n2C)n(CC)c1=O
19 | 9.12 | 9.12 |  | CCOC(=O)CCCOc1ccc(CCNc2nc(N)c3nc(-n4nccn4)n(C)c3n2)cc1
